This note sets out measurements from publication PMC12775434, “Ultra-large virtual screening unveils potent agonists of the neuromodulatory orphan receptor GPR139” (Nature Communications, 2025).

The target of assay [1] is T1, GPR139 (Homo sapiens, UniProt Q6DWJ6).
T1 sequence (Q6DWJ6 1-353): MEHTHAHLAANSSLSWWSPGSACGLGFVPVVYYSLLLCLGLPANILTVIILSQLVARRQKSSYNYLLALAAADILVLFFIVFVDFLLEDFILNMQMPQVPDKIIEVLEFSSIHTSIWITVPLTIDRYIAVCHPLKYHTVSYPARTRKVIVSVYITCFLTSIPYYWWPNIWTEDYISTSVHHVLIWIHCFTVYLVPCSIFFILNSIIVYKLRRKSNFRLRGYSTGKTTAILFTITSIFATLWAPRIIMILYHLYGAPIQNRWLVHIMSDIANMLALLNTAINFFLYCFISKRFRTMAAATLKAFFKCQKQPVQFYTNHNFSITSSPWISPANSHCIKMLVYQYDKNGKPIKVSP
Nature of the assay: Ca2+ mobilization assay, agonist mode, stable GPR139-CHOk1 cell line. In kind it is cell-based. The conditions noted are these: Agonist mode; individual replicates (Supplementary Figure 1). As to the method:
Primary screening and pharmacological characterization of compounds were performed using a CHO-K1 cell line that stably expresses human GPR139 (GPR139-CHOk1). The GPR139-CHOk1 cell line was kindly provided by H. Lundbeck A/S, Denmark[24]. GPR139-CHOk1 cells were grown in Ham’s F-12 Kaighn’s Modification Medium (ThermoFisher #21127030) supplemented with 10% dialyzed fetal bovine serum (US origin, ThermoFisher #26400044), 100 units/mL Penicillin-Streptomycin (ThermoFisher #15140122), and 1 mg/mL Geneticin (ThermoFisher #11811031). […] M1R-CHOk1 cells were purchased from The Missouri S&T cDNA Resource Center (#CEM100TN00). M1R-CHOk1 cells were grown in Ham’s F12 Medium (ThermoFisher #21765029) supplemented with 10% fetal bovine serum (Brazilian origin, ThermoFisher #10270106), 100 units/mL Penicillin-Streptomycin, and 0.25 mg/mL Geneticin. HEK293A cells transiently transfected with GPR139 were used for additional pharmacological assessment of signaling pathways activated by GPR139. HEK239A cells were generously provided by Dr. Asuka Inoue, Tohoku University, Japan. HEK293A cells were grown in Dulbecco’s Modified Eagle Medium (ThermoFisher #31966047) supplemented with 10% dialyzed fetal bovine serum and 100 units/mL Penicillin-Streptomycin. Cell lines were maintained at 37 °C in humidified incubator equilibrated with 5% CO2.
(§1) 30,000 GPR139- or M1R-CHOk1 cells/well were seeded in black clear bottom tissue culture treated 96-well plates (Greiner #655090) and grown for 20–24 h. Cells were washed with HEPES buffer (Hank’s Balanced Salt Solution (HBBS) supplemented with 20 mM HEPES, 1 mM MgCl2, and 1 mM CaCl2; pH 7.4). Cells were loaded with 50 µL of 2 µM Fluo-4 AM dye (ThermoFisher #F14202) in HEPES buffer supplemented with 2.5 mM probenecid and 0.01% Pluronic F-68 (ThermoFisher #24040032) for 1 h at 37 °C. Cells were washed with HEPES buffer. 50 µL HEPES buffer supplemented with 2.5 mM probenecid was added, and the cells were incubated for 10 min at 37 °C before measurement. 50 µL test compounds diluted in HEPES buffer from DMSO stocks (final DMSO concentration of maximally 0.3%) were added automatically after baseline measurements. The intracellular calcium mobilization was measured on a FlexStation 3 Multimode Microplate Reader (Molecular Devices) at 37 °C with filters for excitation of 485 nm and emission of 525 nm.
(§2) Our primary compound screening protocol consisted of two subsequent steps that allowed to screen for agonists and antagonists simultaneously. In the first step, the screening compounds were applied at 10 µM to test for agonist activity (agonist mode). Following 20 min incubation with the compounds added in the first step, in the second step, an EC80 concentration (800 nM) of the reference agonist Lundbeck Cmp 1a was applied to test for antagonist activity (antagonist mode).
Pharmacological data and statistical analyses were performed in GraphPad Prism v9–10 (Graphpad Software Inc., San Diego, CA), which are also specifically described in the figure and table legends. The functional assay responses were normalized to buffer (0%) and Lundbeck Cmp 1a or JNJ-63533054 (100%), for Ca^2+ and IP1 experiments in the GPR139-CHOk1 stable cell line or Ca^2+, G protein activation, and arrestin-3 recruitment experiments in the HEK293A cells transiently transfected with GPR139, respectively. Data are from at least three independent experiments, unless stated otherwise. Concentration-response curves were fitted applying non-linear regression using the log (agonist) versus response model with variable slope. ANOVA was applied for comparing results and determining statistical significance.
On the technique in general: Calcium flux is commonly read through the fluorescence of an indicator in the cells.

In assay [2] the target is T1, GPR139. Kind of assay: Ca2+ mobilization assay, antagonist mode (EC80 800 nM Lundbeck Cmp 1a after 20 min preincubation), GPR139-CHOk1. In kind it is cell-based. The conditions noted are these: individual replicates (Supplementary Figure 1). As to the method: as §1
as §2, with “(antagonist mode). In the agonist mode (first step) response is seen only with compounds having agonist activity (Cmp 1a), but not with non-receptor-binding compounds (Vehicle) or antagonists (NCRW0105-E06) (Supplementary Fig. 14). […] No antagonist compounds were identified in this study.” for “(antagonist mode).”

“And” between values parts separate entries of the source, which are not always exact repeats. Equal values may be shown once.

With `CC(CC(=O)N(CC(=O)N1CCCC1)CC1CCCO1)n1cccc1` (stereo not drawn) [Compound 22, CC(CC(=O)N(CC1CCCO1)CC(=O)N2CCCC2)N3C=CC=C3], the “Ca2+ signal (% of Cmp 1a)” value on GPR139 [1] is 10 % of Cmp 1a and -5.34 % of Cmp 1a and 0.0706 % of Cmp 1a; on GPR139 [2], 90.9616 % of Cmp 1a and 92.7534 % of Cmp 1a and 72.9128 % of Cmp 1a.

With `Cc1sc2ncn(NC(=O)c3csc4cncn34)c(=O)c2c1C` [Compound 23, CC=1SC=2N=CN(NC(=O)C3=CSC4=CN=CN34)C(=O)C2C1C], the “Ca2+ signal (% of Cmp 1a)” value on GPR139 [1] was -1 % of Cmp 1a and 11 % of Cmp 1a and -1.45 % of Cmp 1a; on GPR139 [2], 92.3647 % of Cmp 1a and 68.6585 % of Cmp 1a and 94.6907 % of Cmp 1a.

Turning to `O=C(Cn1ccnc1)Nc1cccc(N2C(=O)c3ccccc3C2=O)c1` [Compound 24, O=C(CN1C=CN=C1)NC=2C=CC=C(C2)N3C(=O)C=4C=CC=CC4C3=O], the “Ca2+ signal (% of Cmp 1a)” value is -4 % of Cmp 1a and 3 % of Cmp 1a and -9 % of Cmp 1a on GPR139 [1]; 76.1398 % of Cmp 1a and 60.9703 % of Cmp 1a and 76.3719 % of Cmp 1a at GPR139 [2].

Regarding `CN(Cc1nnc[nH]1)c1nc(-c2cc(Cl)cc(Cl)c2)no1` [Compound 25, CN(CC1=NN=CN1)C2=NC(=NO2)C=3C=C(Cl)C=C(Cl)C3], the “Ca2+ signal (% of Cmp 1a)” value was 4.25 % of Cmp 1a and 1 % of Cmp 1a and 14 % of Cmp 1a on GPR139 [1]; 70.9298 % of Cmp 1a and 72.5727 % of Cmp 1a and 87.7637 % of Cmp 1a at GPR139 [2].

Turning to `C[C@H](NC(=O)C1(OCc2ccccc2)CCOCC1)c1ccccc1` [Compound 26, C[C@H](NC(=O)C1(CCOCC1)OCC=2C=CC=CC2)C=3C=CC=CC3], the “Ca2+ signal (% of Cmp 1a)” value at GPR139 [1] is 2.84 % of Cmp 1a and -5 % of Cmp 1a and 4.48 % of Cmp 1a; on GPR139 [2], 89.3069 % of Cmp 1a and 86.2472 % of Cmp 1a and 83.3433 % of Cmp 1a.

As to `Cc1cccc(-c2nc(C(=O)N3CCc4ncccc43)c(C)[nH]2)c1` [Compound 27, CC=1NC(=NC1C(=O)N2CCC=3N=CC=CC23)C=4C=CC=C(C)C4], the “Ca2+ signal (% of Cmp 1a)” value was -4.28 % of Cmp 1a and 11 % of Cmp 1a and 2.44 % of Cmp 1a at GPR139 [1]; 81.7236 % of Cmp 1a and 71.1235 % of Cmp 1a and 80.4014 % of Cmp 1a on GPR139 [2].

For `O=C(NCC1CC=CCC1)Nc1cnn(-c2cnc3ccccc3n2)c1` (stereo not drawn) [Compound 28, O=C(NCC1CCC=CC1)NC=2C=NN(C2)C=3C=NC=4C=CC=CC4N3], the “Ca2+ signal (% of Cmp 1a)” value is -7.43 % of Cmp 1a and 8 % of Cmp 1a and 9 % of Cmp 1a at GPR139 [1]; 78.5136 % of Cmp 1a and 66.4897 % of Cmp 1a and 98.5524 % of Cmp 1a at GPR139 [2].

Regarding `CCc1ocnc1C(=O)Nc1cccc(C(=O)NCc2ccccc2)c1` [Compound 29, CCC=1OC=NC1C(=O)NC=2C=CC=C(C2)C(=O)NCC=3C=CC=CC3], the “Ca2+ signal (% of Cmp 1a)” value on GPR139 [1] is -4.43 % of Cmp 1a and 1.9 % of Cmp 1a and 8 % of Cmp 1a; on GPR139 [2] it was 59.2373 % of Cmp 1a and 59.0417 % of Cmp 1a and 94.2662 % of Cmp 1a.

For the compound `Cn1c(SCC(=O)Nc2c(F)cccc2F)nc2ccccc21` [Compound 30, CN1C(SCC(=O)NC=2C(F)=CC=CC2F)=NC=3C=CC=CC13], the “Ca2+ signal (% of Cmp 1a)” value was -6.62 % of Cmp 1a and 1.6 % of Cmp 1a and 14 % of Cmp 1a on GPR139 [1]; 67.1888 % of Cmp 1a and 62.1843 % of Cmp 1a and 60.1781 % of Cmp 1a on GPR139 [2].
